Experimental findings from patent US20250084078A1, “FUSED RING-SUBSTITUTED SIX-MEMBERED HETEROCYCLIC COMPOUND, AND PREPARATION METHOD THEREFOR AND USE THEREOF” (GENFLEFT THERAPEUTICS (SHANGHAI) INC., priority 2022, published 2025) are described below.

Each structure is given as a SMILES string.

In general, IC50 refers to the midpoint of a concentration-inhibition curve. Read a low IC50 as greater potency in that assay.

In the test the target is HPK1 (Homo sapiens, UniProt Q92918). In words: SLP76 phosphorylation assay (intracellular HPK1 inhibitory activity, p-SLP76 S376 ELISA in Jurkat cells). Particulars: p-SLP76 IC50, Jurkat, Clone E6-1 cells; 1 h compound pre-incubation; anti-CD3 beads stimulation 20 min; Phospho-SLP-76 (Ser376) ELISA. For orientation: An ELISA detects its analyte on a solid surface through an enzyme-linked reagent.
Chain of HPK1 (Q92918 whole entry): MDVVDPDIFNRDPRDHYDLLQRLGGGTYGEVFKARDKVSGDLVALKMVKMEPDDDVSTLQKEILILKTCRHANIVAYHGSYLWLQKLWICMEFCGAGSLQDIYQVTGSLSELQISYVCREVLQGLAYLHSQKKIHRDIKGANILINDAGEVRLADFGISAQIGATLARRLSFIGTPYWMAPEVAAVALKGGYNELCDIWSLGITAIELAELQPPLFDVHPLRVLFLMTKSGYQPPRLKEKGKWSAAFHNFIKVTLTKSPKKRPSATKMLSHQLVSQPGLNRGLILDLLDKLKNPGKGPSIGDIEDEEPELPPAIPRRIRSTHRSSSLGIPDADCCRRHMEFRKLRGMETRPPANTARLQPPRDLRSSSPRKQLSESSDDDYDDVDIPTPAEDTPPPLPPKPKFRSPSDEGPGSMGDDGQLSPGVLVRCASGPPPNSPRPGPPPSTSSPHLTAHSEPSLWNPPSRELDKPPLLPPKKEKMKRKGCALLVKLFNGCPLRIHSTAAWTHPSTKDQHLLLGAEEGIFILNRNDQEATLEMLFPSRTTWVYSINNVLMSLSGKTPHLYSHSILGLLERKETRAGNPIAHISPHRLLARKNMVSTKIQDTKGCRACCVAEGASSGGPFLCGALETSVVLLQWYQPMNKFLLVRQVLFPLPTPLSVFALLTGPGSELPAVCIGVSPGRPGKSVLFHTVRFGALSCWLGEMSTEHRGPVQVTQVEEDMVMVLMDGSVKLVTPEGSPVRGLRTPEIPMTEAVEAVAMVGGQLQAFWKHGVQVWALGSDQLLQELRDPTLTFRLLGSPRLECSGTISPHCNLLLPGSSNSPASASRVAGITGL
On to `Cc1c[nH]c2ncc(-c3cc4c(c(C5COCCN5)c3)CN(C(=O)[C@](C)(O)C(F)(F)F)CC4)cc12` (single isomer, unassigned) [Compound Z309-1], for which it took 82.6 nM to reach half-maximal inhibition (IC50).
Next, `O=C(N1CCc2cc(-c3cnc4[nH]cc(Cl)c4n3)cc([C@@H]3COCCN3)c2C1)N1C[C@H]2CC[C@@H]1CO2` (single isomer, unassigned) [Compound Z591]: 275 nM.
Take `Cc1c[nH]c2ncc(-c3cc4c(c([C@@H]5COCCN5)c3)CN(C(=O)N3C[C@H]5CC[C@@H]3CO5)CC4)cc12` (single isomer, unassigned) [Compound Z643]: the midpoint of inhibition, the IC50, lay at 294 nM.
`COC1(C(=O)N2CCc3cc(-c4cnc5[nH]cc(C)c5c4)cc([C@@H]4COCCN4)c3C2)CC1` [Compound Z373, (R)-(1-methoxycyclopropyl)(6-(3-methyl-1H-pyrrolo[2,3-b]pyridin-5-yl)-8-(morpholin-3-yl)-3,4-dihydroisoquinolin-2(1H)-yl)methanone] showed an IC50 of 159 nM.
Next, `O=C(N1CCc2cc(-c3cnc4[nH]cc(Cl)c4c3)cc([C@@H]3COCCN3)c2C1)C1(O)CC1` [Compound Z435, (R)-(6-(3-chloro-1H-pyrrolo[2,3-b]pyridin-5-yl)-8-(morpholin-3-yl)-3,4-dihydroisoquinolin-2(1H)-yl)(1-hydroxycyclopropyl)methanone]: 258 nM; `Cc1c[nH]c2ncc(-c3cc4c(c([C@@H]5COCCN5)c3)CN(C(=O)N3CCO[C@@H](C)C3)CC4)cc12` [Compound Z452, (6-(3-methyl-1H-pyrrolo[2,3-b]pyridin-5-yl)-8-((R)-morpholin-3-yl)-3,4-dihydroisoquinolin-2(1H)-yl)((S)-2-methylmorpholine)methanone]: 238 nM.
Compound `Cc1c[nH]c2ncc(-c3cc4c(c([C@@H]5COCCN5)c3)CN(C(=O)N3CCOC(C)(C)C3)CC4)cc12` [Compound Z453, (R)-(2,2-dimethylmorpholine)(6-(3-methyl-1H-pyrrolo[2,3-b]pyridin-5-yl)-8-(morpholin-3-yl)-3,4-dihydroisoquinolin-2(1H)-yl)methanone] displayed an IC50 of 148 nM.
With `Cc1c[nH]c2ncc(-c3cc4c(c([C@@H]5COCCN5)c3)CN(C3CCOCC3)CC4)cc12` [Compound Z454, (R)-3-(6-(3-methyl-1H-pyrrolo[2,3-b]pyridin-5-yl)-2-(tetrahydro-2H-pyran-4-yl)-1,2,3,4-tetrahydroisoquinolin-8-yl)morpholine], the IC50 worked out at 655 nM.
With `Cc1n[nH]c2ncc(-c3cc4c(c([C@@H]5COCCN5)c3)CN(C(=O)C(C)(C)O)CC4)cc12` [Compound Z455, (R)-2-hydroxy-2-methyl-1-(6-(3-methyl-1H-pyrazolo [3,4-b]pyridin-5-yl)-8-(morpholin-3-yl)-3,4-dihydroisoquinolin-2(1H)-yl)propan-1-one] the figure was 4430 nM; with `Cc1c[nH]c2ncc(-c3cc4c(c([C@@H]5COCCN5)c3)CN(C(=O)c3cnn(C5CC5)c3)CC4)cc12` [Compound Z456], 315 nM.
Next, `Cc1c[nH]c2ncc(-c3cc4c(c([C@@H]5COCCN5)c3)CN(C(=O)N3CC(C)OCC3C)CC4)cc12` (stereo partly drawn) [Compound Z458, (2,5-dimethylmorpholine)(6-(3-methyl-1H-pyrrolo[2,3-b]pyridin-5-yl)-8-((R)-morpholin-3-yl)-3,4-dihydroisoquinolin-2(1H)-yl)methanone]: 127 nM; `Cc1c[nH]c2ncc(-c3cc4c(c([C@@H]5COCCN5)c3)CN(C(=O)N3CC(C)OC(C)C3)CC4)cc12` (stereo partly drawn) [Compound Z459, (2,6-dimethylmorpholine)(6-(3-methyl-1H-pyrrolo[2,3-b]pyridin-5-yl)-8-((R)-morpholin-3-yl)-3,4-dihydroisoquinolin-2(1H)-yl)methanone]: 171 nM; `Cc1c[nH]c2ncc(-c3cc4c(c([C@@H]5COCCN5)c3)CN(C(=O)N3C(C)COCC3C)CC4)cc12` (stereo partly drawn) [Compound Z460, (3,5-dimethylmorpholine)(6-(methyl-methyl-1H-pyrrolo[2,3-b]pyridin-5-yl)-8-((R)-morpholin-3-yl)-3,4-dihydroisoquinolin-2(1H)-yl)methanone]: 177 nM.
Next, `COC1CN(C(=O)N2CCc3cc(-c4cnc5[nH]cc(C)c5c4)cc([C@@H]4COCCN4)c3C2)C(C)(C)C1` (stereo partly drawn) [Compound Z461, (4-methoxy-2,2-dimethylpyrrolidin-1-yl)(6-(3-methyl-1H-pyrrolo[2,3-b]pyridin-5-yl)-8-((R)-morpholin-3-yl)-3,4-dihydroisoquinolin-2(1H)-yl)methanone]: 195 nM; `Cc1c[nH]c2ncc(-c3cc4c(c([C@@H]5COCCN5)c3)CN(C(=O)N3CC5CCC(C3)N5C)CC4)cc12` [Compound Z462]: 255 nM; `Cc1c[nH]c2ncc(-c3cc4c(c([C@@H]5COCCN5)c3)CN(C(=O)N3C[C@@H]5C[C@H]3CO5)CC4)cc12` [Compound Z463]: 293 nM.
Regarding `CCc1c(F)[nH]c2ncc(-c3cc4c(c([C@@H]5COCCN5)c3)CN(C(=O)C(C)(C)O)CC4)cc12` [Compound Z464, (R)-3-(6-(3-ethyl-2-fluoro-1H-pyrrolo[2,3-b]pyridin-5-yl)-2-(2-hydroxy-2-methylpropanoyl)-1,2,3,4-tetrahydroisoquinolin-8-yl)morpholine], the half-inhibitory concentration (IC50) worked out at 193 nM.
Next, `CC(C)(O)C(=O)N1CCc2cc(-c3cnc4[nH]cc(Cl)c4n3)cc([C@@H]3COCCN3)c2C1` [Compound Z465, (R)-3-(6-(7-chloro-5H-pyrrolo[2,3-b]pyrazin-2-yl)-2-(2-hydroxy-2-methylpropanoyl)-1,2,3,4-tetrahydroisoquinolin-8-yl)morpholine]: 144 nM; `COCC(=O)N1CCc2cc(-c3cnc4[nH]cc(Cl)c4c3)cc([C@@H]3COCCN3)c2C1` [Compound Z466, (R)-1-[6-(3-chloro-1H-pyrrolo[2,3-b]pyridin-5-yl)-8-morpholin-3-yl-3,4-dihydroisoquinolin-2(1H)-yl]-2-methoxyethan-1-one]: 306 nM; `Cc1c[nH]c2ncc(-c3cc4c(c([C@@H]5COCCN5)c3)CN(S(=O)(=O)C3CC3)CC4)cc12` [Compound Z467, (R)-3-[2-cyclopropylsulfonyl-6-(3-methyl-1H-pyrrolo[2,3-b]pyridin-5-yl)-1,2,3,4-tetrahydroisoquinolin-8-yl]morpholine]: 385 nM.
On to `Cc1ncc(C(=O)N2CCc3cc(-c4cnc5[nH]cc(C)c5c4)cc([C@@H]4COCCN4)c3C2)cn1` [Compound Z468, (R)-(2-methylpyrimidin-5-yl)-[6-(3-methyl-1H-pyrrolo[2,3-b]pyridin-5-yl)-8-[morpholin-3-yl]-3,4-dihydroisoquinolin-2(1H)-yl]methanone], for which half-maximal inhibition (IC50) was put at 340 nM.
As to `CN1C2CCC1CN(C(=O)N1CCc3cc(-c4cnc5[nH]cc(Cl)c5c4)cc([C@@H]4COCCN4)c3C1)C2` [Compound Z470], half-maximal inhibition (IC50) required 127 nM.
With `Cc1c[nH]c2ncc(-c3cc4c(c([C@@H]5COCCN5)c3)CN(C(=O)N3C5CCC3CN(C)C5)CC4)cc12` [Compound Z471, (6-(3-methyl-1H-pyrrolo[2,3-b]pyridin-5-yl)-8-((R)-morpholin-3-yl)-3,4-dihydroisoquinolin-2(1H)-yl)(3-methyl-3,8-diazabicyclo[3.2.1]octan-8-yl)methanone] the figure was 180 nM.
Next, `CN1CC2CCC(C1)N2C(=O)N1CCc2cc(-c3cnc4[nH]cc(Cl)c4c3)cc([C@@H]3COCCN3)c2C1` [Compound Z472]: 216 nM.
`O=C(N1CCc2cc(-c3cnc4[nH]cc(F)c4c3)cc([C@@H]3COCCN3)c2C1)N1CC2CCC(C1)O2` [Compound Z475] came in with an IC50 of 117 nM.
Next, `Cc1c[nH]c2ncc(-c3cc4c(c([C@@H]5COCCN5)c3)CN(C(=O)c3cnn(C(C)C)c3)CC4)cc12` [Compound Z477]: 422 nM; `CO[C@@H]1CCN(C(=O)N2CCc3cc(-c4cnc5[nH]cc(C)c5c4)cc([C@@H]4COCCN4)c3C2)C1` [Compound Z478]: 329 nM.
In turn, `Cc1c[nH]c2ncc(-c3cc4c(c([C@@H]5COCCN5)c3)CN(C(=O)N3CCOCC3(C)C)CC4)cc12` [Compound Z479, (R)-(3,3-dimethylmorpholine)(6-(3-methyl-1H-pyrrolo[2,3-b]pyridin-5-yl)-8-(morpholin-3-yl)-3,4-dihydroisoquinolin-2(1H)-yl)methanone] gave an IC50 of 147 nM.
In the case of `Cc1c[nH]c2ncc(-c3cc4c(c([C@@H]5COCCN5)c3)CN(C(=O)N3CCOC[C@H]3C)CC4)cc12` [Compound Z480, (6-(3-methyl-1H-pyrrolo[2,3-b]pyridin-5-yl)-8-((R)-morpholin-3-yl)-3,4-dihydroisoquinolin-2(1H)-yl)((R)-3-methylmorpholino)methanone], the half-maximal inhibitory concentration (IC50) amounted to 118 nM.
Compound `Cc1c(Cl)[nH]c2ncc(-c3cc4c(c([C@@H]5COCCN5)c3)CN(C(=O)C(C)(C)O)CC4)cc12` [Compound Z481, (R)-1-(6-(2-chloro-3-methyl-1H-pyrrolo[2,3-b]pyridin-5-yl)-8-(morpholin-3-yl)-3,4-tetrahydroisoquinolin-2(1H)-yl)-2-hydroxy-2-methylpropan-1-one] came in with an IC50 of 443 nM.
With `Cc1c[nH]c2ncc(-c3cc4c(c([C@@H]5COCCN5)c3)CN(C(=O)N3CCN(C)CC3)CC4)cc12` [Compound Z482, (R)-(6-(3-methyl-1H-pyrrolo[2,3-b]pyridin-5-yl)-8-(morpholin-3-yl)-3,4-dihydroisoquinolin-2(1H)-yl)(4-methylpiperazin-1-yl)methanone] the figure was 311 nM; with `O=C(N1CCOCC1)N1CCc2cc(-c3cnc4[nH]cc(Cl)c4c3)cc([C@@H]3COCCN3)c2C1` [Compound Z483, (R)-(6-(3-chloro-1H-pyrrolo[2,3-b]pyridin-5-yl)-8-(morpholin-3-yl)-3,4-dihydroisoquinolin-2(1H)-yl)(morpholine)methanone], 112 nM.
Next, `Cc1c[nH]c2ncc(-c3cc4c(c([C@@H]5COCCN5)c3)CN(C(=O)N3CCO[C@H](C)C3)CC4)cc12` [Compound Z484, (6-(3-methyl-1H-pyrrolo[2,3-b]pyridin-5-yl)-8-((R)-morpholin-3-yl)-3,4-dihydroisoquinolin-2(1H)-yl)((R)-2-methylmorpholino)methanone]: 364 nM.
